As a reminder, the IC50 is the concentration at which inhibition is half-maximal.

The source of these data is US10576078B2 (Council of Scientific & Industrial Research, priority 2017, dated 2020).

Where two headings read alike, the source gives them in different places.

Series [1] relates to K562 cells. Put plainly: K562 cell viability, CellTiter-Glo luminescent assay. The conditions noted are these: Homo sapiens, 48 h. Format: cell-based, Human. The protocol: K562 cells were treated with indicated concentrations of CFZ for 24 h or 48 h, cell viability was then assessed using the CellTiter-Glo luminescent cell viability assay (Promega). Data is mean±SEM of three independent experiments (each in triplicates). IC50 was calculated using Graphpad prism 5 software.
K562 cells were treated as indicated for 48 h and cell viability was determined by CellTiter-Glo luminescent cell viability assay (A) graphical representation of mean±SEM of three independent experiments.
(§1) Determination of CFZ's Effect on Cell Viability and Apoptosis • a. CellTitre-Glo assay: Cell viability (in FIG. 1B, FIG. 4 and FIG. 6A) assays was performed using the ATP-based CellTiter-Glo Luminescent cell viability assay (Promega Madison, Wis.) as per the manufacturer's instruction. Briefly, (1.25×10^5) K562 cells/ml (FIG. 1B and FIG. 4) or CD34+ cells from healthy donors (FIG. 6A) were cultured in 48-well plates and were treated as indicated in the respective figures and figure descriptions (vehicle; V=0.1% DMSO). Cells were then incubated with CellTitre-Glo reagent for 15 min. Luminescence was recorded in a GloMax-96 Microplate luminometer (Promega, Madison, Wis.) with an integration time of 1 s per well. • b. Analysis of apoptosis by Annexin V staining and flow cytometry • K562 (FIG. 1C-D) and primary CP-CML cells (FIG. 1H-I) were cultured in 6 well plates (2×10^5 cells/well) and were treated with indicated concentrations of compounds as described in respective figures and their descriptions. Cells were then harvested and washed, and incubated in binding buffer (Annexin V Binding Buffer, BD Pharmingen) with 0.3% Annexin V-FITC and PI for 15 min at room temperature in dark. Apoptosis was measured by FACSCalibur flow cytometer (Becton Dickenson, San Jose, Calif.). • c. TUNEL assay • Pro-apoptotic potential was analysed using a Fluorometric APO-BrdU™ TUNEL Assay Kit (Invitrogen) according to the manufacturer's protocol (FIG. 1F). Cells were treated with Vehicle (0.1% DMSO) or CFZ (5 μM) for 48 h. Cells were then fixed in formaldehyde (4%) for 25 min at 4° C., permeabilized with 0.2% Triton-X100 and washed with PBS. Cells were then incubated in Terminal Deoxynucleotidyl Transferase (TdT) reaction buffer without TdT enzyme for 7 minutes at room temperature and then in TdT buffer with TdT enzyme at 37° C. in dark. After termination of TdT reaction, cells were stained with 5 μg/ml of PI for 15 min in dark followed by washing and analysed with fluorescence microscopy.
Background: In ATP-based viability assays light output follows the ATP content of the culture.

Series [2] relates to CrkL. Put plainly: Immunoblotting of CrkL phosphorylation in K562 cells. Format: cell-based, Human. The conditions noted are these: 30 min, Y207. As for the experimental part:
K562 cells were treated as indicated for 30 min and stat5 phosphorylation at Y694 or CrkL phosphorylation at Y207 were assessed by immunoblotting. Total stat5 or β-actin expression was assessed to ensure equal loading. Pio was used as a negative control and IMT was used as a positive control. Data is one representative of 3 independent experiments.
K562 cells were cultured in 6 well plates and treated as indicated in figures or descriptions of FIG. 1E, FIG. 1G and FIG. 2D-E. Cells were then homogenized in lysis buffer containing 50 mM Tris-HCl, pH 7.5, 150 mM NaCl, 1% NP40, 5 mM EDTA, 1 mM DTT, protease and phosphatase inhibitor cocktails (Sigma) and incubated on ice for 30 min followed by 5 cycles of freeze-thaw. Samples were then centrifuged at 14000 rpm at 4° C. for 30 min. Supernatants were then quantified by Bichinchonic acid (Sigma)-based protein estimation. Equal amount of proteins were solubilized in Laemmli buffer, and were resolved by 10%-12% SDS PAGE and transferred onto PVDF membranes (Millipore; Billerica, Mass.). Membranes were blocked in 5% (w/v) non-fat dried milk powder (Sigma) in PBS containing 0.2% Tween 20 (Sigma). […] Immunoreactivity was detected using a chemiluminescent HRP Substrate (Millipore) in a LAS 4010 Chemi-doc Imager (GE Healthcare, Little Chalfont, UK). […]
On the technique in general: In western blotting, separated proteins are transferred to a membrane and probed.

In series [3] the test system is CD34+ cells from healthy donors. The protocol: as §1
The conditions of series [4]: rat, in vivo, po. An excerpt:
Sprague-Dawley rats (n=6 per group) were divided into 3 groups. […] Plasma was separated and processed for analysis by LC-MS/MS. For pharmacokinetic and statistical analysis, plasma concentration versus time data were plotted and analyzed by non-compartmental analysis method using WinNonlin (Pharsight, Mountain View, Calif.) software.
For this SD rats (n=6 per group) were divided into 3 groups. […] Plasma was separated and processed for analysis by LC-MS/MS. For pharmacokinetic and statistical analysis, plasma concentration versus time data were plotted and analyzed by non-compartmental analysis method using WinNonlin (Pharsight, Mountain View, Calif.) software.

The test system of series [5] is CD34+ cells from imatinib-resistant patients (quiescent LSCs). Put plainly: CFSE assay of quiescent LSCs. Format: cell-based, Human. As to conditions: n=3, 96 h.
Protocol: Cells were gated depending on CFSE intensity. […] Apoptosis in these cells was determined by annexin V staining.
For assessing apoptosis in quiescent LSCs, purified CD34^+ cells were first stained with carboxyfluorescein succinimidyl ester (CFSE; Invitrogen) for 30 min. Cells were then washed and resuspended in SFM medium with 5 growth factors and were kept at 37° C. overnight. Next day, cells were treated as indicated in SFM medium with growth factors and were maintained further for 4 days with supplementation of the drugs every 48 h (drug concentrations in FIG. 5 and its description). Cells were then harvested, washed, and were labeled with CD34-PE and Annexin-APC antibodies and then gated into non-dividing cells (CD34^+CFSE^bright) and dividing cell (CD34^+CFSE^dim) population based on CFSE fluorescence intensity. […] Number of cells or apoptosis was determined by flowcytometry.

As for `Cc1nc(Nc2ncc(C(=O)Nc3c(C)cccc3Cl)s2)cc(N2CCN(CCO)CC2)n1` [dasatinib, Dasatinib], the IC50 in series [1] (drug alone, FIG. 4A, read-out: IC50, K562 cell viability assay (48 h)) is 640 nM; in series [1] (in presence of CFZ, read-out: IC50 of dasatinib in presence of CFZ), 12.4 nM.
For the compound `Cc1ccc(NC(=O)c2ccc(CN3CCN(C)CC3)cc2)cc1Nc1nccc(-c2cccnc2)n1` [imatinib, Imatinib], in series [2], the CrkL phosphorylation result is “successfully inhibited”. Besides, the “viability of CD34+ hematopoietic progenitor cells from healthy controls” value in series [3] is listed as “No loss of survival”. The “Tmax in combination group compared to individual groups” value in series [4] is “no change”. Moreover, the “number of CFSE-bright (non-dividing) cells” value in series [5] was “failed to reduce”.
